The subject of this experiment is male dd-mice. Nature of the experiment: anti-apomorphine activity in mice (inhibition of motor activity after apomorphine, animex). The class given is in vivo. To be noted: Mus musculus, po, read-out: Anti-apomorphine activity ED50 (dose which inhibited the motor activity by 50% as compared with the control). How it is done:
Groups of 5 male dd-mice (20-25 g body weight) each were used. Apomorphine hydrochloride (0.5 mg/kg) was subcutaneously administered 60 minutes after oral administration of test compound. Immediately after the apomorphine treatment, motor activity was determined for 20 minutes by animex. For the control groups, 0.5% methylcellulose solution was administered instead of test compound. The ED50, a dose which inhibited the motor activity by 50% as compared with the control, was determined.

Setting [1] is: male dd-mice, p.o., 60 min before apomorphine hydrochloride 0.5 mg/kg s.c., motor activity for 20 min by animex.

Like-named read-outs stand apart in the source and are kept apart here.

For orientation: ED50 means the dose that gives a 50% effect, or the effect in half of the subjects.

Take `O=c1[nH]c2ccccc2n1C1CCN(CC2=NOC(c3ccc(F)cc3)C2)CC1` (stereo not shown) [A, 1-[5-(4-Fluorophenyl)-4,5-dihydroisoxazol-3-ylmethyl]-4-(2-oxo-1-benzimidazolinyl)piperidine]: the ED50 under setting [1] is 1.7 mg/kg.

Take `O=c1[nH]c2cc(F)ccc2n1C1CCN(CC2=NOC(c3ccc(F)cc3)C2)CC1` (stereo not shown) [B, 1-[5-(4-Fluorophenyl)-4,5-dihydroisoxazol-3-ylmethyl]-4-(5-fluoro-2-oxo-1-benzimidazolinyl)piperidine]: the ED50 under setting [1] came to 2.1 mg/kg.

Take `OC1(c2ccc(Cl)cc2)CCN(CC2=NOC(c3ccc(F)cc3)C2)CC1` (stereo not shown) [C, 1-[5-(4-Fluorophenyl)-4,5-dihydroisoxazol-3-ylmethyl]-4-(4-chlorophenyl)-4-hydroxypiperidine]: the ED50 turned out to be 3.4 mg/kg.

Consider `CN1CCN(C2=Nc3cc(Cl)ccc3Nc3ccccc32)CC1` [Clozapine, reference compound], for which the ED50 under setting [1] came out at 10 mg/kg.

The record behind these values is US4397853A, “Isoxazole derivatives” (Yoshitomi Pharmaceutical Industries Ltd., priority 1979, dated 1983).
